Values after ≈ are worked out from the molar mass of the structure shown. Values joined by “and” are separate entries in the source; they are usually repeats but may differ in a detail not shown here. Equal values may be shown once. Read-outs that look alike come from different tables or passages of the source. Marks after values point to notes of the source that are not given here.
Experiments:
[1] = tested on: P. yoelii (strain not characterized); experiment: P. yoelii (strain not characterized) infection in mice, parasitemia, drug i.p. (Example 16); assay type: in vivo, BALB/c mice; details: 5 mg per kg twice daily for 8 days
L. pneumophilia = experiment: microbe, parasite or virus in culture; assay type: cell-based; details: Legionella pneumophila
[2] = tested on: Staphylococcus aureus ATCC 25923; experiment: MIC, macrodilution (Example 17); assay type: cell-based; details: ATCC25923
Mycobacteria = assay type: cell-based
[3] = Toxicity study in mice, i.v. and oral (Example 21); assay type: in vivo, NMRI female mice
Procedure: Drug. Licochalcone A solution was prepared as follows: 20 mg of licochalcone A was dissolved in 0.2 ml of ethanol. 60 mg of melted polyoxyethylene (23)lauryletherb (Brij 35) was added. 1.7 ml of phosphate buffer was then added while stirring on a warm plate. pH in the licochalcone A solution was adjusted to 7.3.
Mice. NMRI female mice (30-35 gram) in groups of 4 each were used for these studies. For the oral route experiment, the animals were fasted for 16 hrs with access to drinking water. Licochalcone A was suspended in 2% carboxymethylcellulose in water. This suspension was available for the mice in an amount of 0.1 ml per 10 gram body weight. The animals were observed every day for 7 days. For the intravenous injection experiment the animals were not fasted. Licochalcone A in solution (20 mg/ml) prepared as mentioned above was injected intravenously 0.1 ml per 10 gram body weight over a period of one hour and again 24 hrs later.

Eimeria tenella = experiment: Anticoccidial activity in chickens infected with Eimeria tenella (Example 28); assay type: in vivo
human lymphocytes = experiment: Lymphocyte Proliferation Assay, 3H-thymidine incorporation (Example 13); details: Homo sapiens, Lymphocyte
[4] = amount of feed consumed per kg chicken weight gain, doses as Table 28.1
[5] = in feed: salinomycin 70 ppm, 2,5 m4′ac and 2,4 mc 30 mg/kg/day, licochalcone A 10 mg/kg/day
[6] = read-out: inhibition of lymphocytes (lower figure)
[7] = read-out: percentage inhibition of lymphocyte proliferation response ±SEM

## C=CC(C)(C)c1cc(/C=C/C(=O)c2ccc(O)cc2)c(OC)cc1O [Licochalcone A, licochalcone A]
[1]; D + 4
  Parasitemia, mean of 3 mice: 2.5%
  Parasitemia, single mice: 4.0% and 1.5% and 2.0%
[1]; D + 5
  Parasitemia, mean of 3 mice: 2.5%
  Parasitemia, single mice: 4.0% and 1.5% and 2.0%
[1]; D + 6
  Parasitemia, mean of 3 mice: 2.3%
  Parasitemia, single mice: 4.5% and 2.0% and 1.0%
[1]; D + 7
  Parasitemia, mean of 3 mice: 2.2%
  Parasitemia, single mice: 4.0% and 1.5% and 1.0%
[1]; D + 8
  Parasitemia, mean of 3 mice: 2.3%
  Parasitemia, single mice: 4.0% and 1.5%
[1]; D + 9
  Parasitemia, mean of 3 mice: 2.2%
  Parasitemia, single mice: 4.0% and 1.0% and 1.5%
[1]; D + 11
  Parasitemia, mean of 3 mice: 1.7%
  Parasitemia, single mice: 2.0% and 1.0%
[1]; D + 12
  Parasitemia, mean of 3 mice: 1.7%
  Parasitemia, single mice: 2.0% and 1.0%
[1]; D + 14
  Parasitemia, mean of 3 mice: 0.7%
  Parasitemia, single mice: 1.0% and 0.0%
[1]; D + 16
  Parasitemia, mean of 3 mice: 0.03%
  Parasitemia, single mice: 0.0% and 0.1%
[1]; D + 18
  Parasitemia, mean of 3 mice: 0.0%
  Parasitemia, single mice: 0.0%
[1]; D + 20
  Parasitemia, mean of 3 mice: 0.0%
  Parasitemia, single mice: 0.0%
[1]; D + 21
  Parasitemia, mean of 3 mice: 0.0%
  Parasitemia, single mice: 0.0%
L. pneumophilia; L. pneumophilia serogr. 1, 4 strains
  MIC: 1 to 4 µg/mL (≈ 2.96 to 11.8 µM)
L. pneumophilia; L. pneumophilia serogr. 2-7, 6 strains
  MIC: 2 to 4 µg/mL (≈ 5.91 to 11.8 µM)
L. pneumophilia; read-out: MIC-values, clinical isolates
  MIC: 1 to 4 µg/mL (≈ 2.96 to 11.8 µM)
[2]
  MIC: 18 µg/mL (≈ 53.2 µM)
Mycobacteria
  Species with MIC ≦ 20 μg/ml: M. kansasii and M. xenophii and M. marinum and M. tuberculosis and M. bovis and BCG
[3]; 1000 mg/kg perorally, groups of 4
  No. dead (after 7 days): 0 (after 7 days)
[3]; i.v. 20 mg/kg, groups of 4
  No. dead (after 1 hr): 0
[3]; i.v. 50 mg/kg, groups of 4
  No. dead (after 1 hr): 1
[3]; i.v. 60 mg/kg, groups of 4
  No. dead (after 1 hr): 4
[3]; i.v. 100 mg/kg, groups of 4
  No. dead (after 1 hr): 4
[3]; mice
  Approximate LD50 i.v.: ~55 mg per kg body weight
Eimeria tenella; 10 mg/kg/day in feed
  percentages of chickens showing pathological signs versus infected control group: much lower
Eimeria tenella; [4]
  feed consumption after 7 days of treatment: 1.26
  feed consumption after 14 days of treatment: 1.31
Eimeria tenella; [5]
  Weight gain in 7 days after initiation of treatment: 414 grams per chicken
  Weight gain in 14 days after initiation of treatment: 864^b grams per chicken
Eimeria tenella; normal variation ±2%
  Difference in weight gain to group 5 (control infected) after treatment for 14 days: ^bDifference between groups 4 (licochalcone A) and 5 (control infected) after treatment for 14 days is 7.6%.
Eimeria tenella; number of chickens, groups of 35, licochalcone A 20
  Mortality: 0
Human lymphocytes; [6]
  inhibition at 0.5 µg/mL: 4.7%
  inhibition at 1 µg/mL: 7.7%
  inhibition at 5 µg/mL: 20.8%
  inhibition at 10 µg/mL: 39.7%
Human lymphocytes; [7]
  inhibition at 1 µg/mL: 4.7 ± 5.6%
  inhibition at 2 µg/mL: 7.8 ± 5.7%
  inhibition at 5 µg/mL: 20.8 ± 4.8%
  inhibition at 10 µg/mL: 39.7 ± 5.4%
  inhibition at 20 µg/mL: 65.3 ± 7%
